system: KKA^Y mice; assay: Glucose, insulin and triglyceride in diabetic KKAy mice treated with exemplary compounds; format: in vivo; settings: 93 mg/kg oral for 4 days, blood approx. 18 h after last dose, fasted, Vehicle A 24 (5)
Description: (§1) The insulin sensitizing and antidiabetic pharmacology are measured in the KKA^Y mice as previously reported [Hofmann, C., Lornez, K., and Colca, J. R. (1991). Glucose transport deficiency corrected by treatment with the oral anti-hyperglycemic agent Pioglitazone. Endocrinology, 129:1915-1925.] Compounds are formulated in 1% sodium carboxy methylcellulose, and 0.01% tween 20 and dosed daily by oral gavage.
Glucose, Insulin, and Triglyceride in Diabetic KKAy Mice Treated with Exemplary Compounds of the Present Invention.
as §1, with “129:1915-1925.].” for “129:1915-1925.]”
Compounds were formulated by suspension and orally dosed to KKA^Y mice at 93 mg/kg for 4 days. The compounds were first dissolved in DMSO and then placed into aqueous suspension containing 7-10% DMSO, 1% sodium methylcarboxycellulose, and 0.01% Tween 20. On the fifth day, the mice were fasted and blood samples were obtained approximately 18 hours after the last dose. The parameters were measured by standard assay methods. Data are mean and SEM N=6-12 mice.

SMILES	Insulin (Mean/SD)
O=C1NC(=O)C(Cc2ccc(OCC(=O)c3ccc(F)cc3)cc2)S1 (stereo not drawn) [Compound 2, 5-{4-[2-(4-fluorophenyl)-2-oxoethoxy]benzyl}-1,3-thiazolidine-2,4-dione]	0.10
O=C1NC(=O)C(Cc2ccc(OCC(=O)c3ccccc3F)cc2)S1 (stereo not drawn) [Compound 3, 5-{4-[2-(2-fluorophenyl)-2-oxoethoxy]benzyl}-1,3-thiazolidine-2,4-dione]	0.20
O=C1NC(=O)C(Cc2ccc(OCC(=O)c3cccc(F)c3)cc2)S1 (stereo not drawn) [Compound 4, 5-{4-[2-(3-fluorophenyl)-2-oxoethoxy]benzyl}-1,3-thiazolidine-2,4-dione]	0.24
O=C1NC(=O)C(Cc2ccc(OCC(=O)c3cccc(Cl)c3)cc2)S1 (stereo not drawn) [Compound 7, 5-{4-[2-(3-chlorophenyl)-2-oxoethoxy]benzyl}-1,3-thiazolidine-2,4-dione]	0.59
O=C1NC(=O)C(Cc2ccc(OCC(=O)c3ccccc3Cl)cc2)S1 (stereo not drawn) [Compound 8, 5-{4-[2-(2-chlorophenyl)-2-oxoethoxy]benzyl}-1,3-thiazolidine-2,4-dione]	0.47
COc1ccc(C(=O)COc2ccc(CC3SC(=O)NC3=O)cc2)cc1 (stereo not drawn) [Compound 9, 5-{4-[2-(4-methoxyphenyl)-2-oxoethoxy]benzyl}-1,3-thiazolidine-2,4-dione]	0.76

Reference: patent US8937182B2, “Synthesis for thiazolidinedione compounds” (Metabolic Solutions Development Company, LLC, priority 2010, dated 2015)
